The values below come from patent US20240270762A1, “PENICILLIN-BINDING PROTEIN INHIBITORS” (priority 2021, published 2024).

The test system of one assay is P. aeruginosa CDC-0095. Nature of the assay: microbe, parasite or virus in culture. In kind it is cell-based. As to conditions: Pseudomonas aeruginosa, CDC0095, read-out: Minimum inhibitory concentration, P. aeruginosa CDC-0095.
The subject of a further assay is A. baumannii ATCC 19606. Nature of the assay: microbe, parasite or virus in culture. In kind it is cell-based. To be noted: Acinetobacter baumannii, ATCC19606, read-out: MIC, A. baumannii ATCC 19606.
The next assay has as its system P. aeruginosa ATCC 27853. Briefly: microbe, parasite or virus in culture. In kind it is cell-based. As to conditions: Pseudomonas aeruginosa, ATCC27853, read-out: Minimum inhibitory concentration, P. aeruginosa ATCC 27853.
In the next assay the test system is A. baumannii CDC-0033. Briefly: microbe, parasite or virus in culture. In kind it is cell-based. To be noted: Acinetobacter baumannii, CDC0033, read-out: MIC, A. baumannii CDC-0033.
Another assay relates to A. baumannii ATCC 17978. Nature of the assay: microbe, parasite or virus in culture. In kind it is cell-based. As to conditions: Acinetobacter baumannii, ATCC17978, read-out: MIC, A. baumannii ATCC 17978.
Another assay relates to P. aeruginosa ATCC 35151. Briefly: microbe, parasite or virus in culture. As to conditions: Pseudomonas aeruginosa, ATCC35151, read-out: Minimum inhibitory concentration, P. aeruginosa ATCC 35151. In kind it is cell-based.
Another assay has as its system P. aeruginosa CDC-0090. Nature of the assay: microbe, parasite or virus in culture. In kind it is cell-based. To be noted: Pseudomonas aeruginosa, CDC0090, read-out: Minimum inhibitory concentration, P. aeruginosa CDC-0090.
In another assay the test system is A. baumannii 1258916. Briefly: microbe, parasite or virus in culture. In kind it is cell-based, Acinetobacter baumannii. As to conditions: Acinetobacter baumannii, 1258916, read-out: MIC, A. baumannii 1258916.
The target in assay [1] is T1, PBP3 from Acinetobacter baumannii (ATCC 19606) (Acinetobacter baumannii, UniProt A0ABX6CK25).
T1 sequence (A0ABX6CK25 64-610): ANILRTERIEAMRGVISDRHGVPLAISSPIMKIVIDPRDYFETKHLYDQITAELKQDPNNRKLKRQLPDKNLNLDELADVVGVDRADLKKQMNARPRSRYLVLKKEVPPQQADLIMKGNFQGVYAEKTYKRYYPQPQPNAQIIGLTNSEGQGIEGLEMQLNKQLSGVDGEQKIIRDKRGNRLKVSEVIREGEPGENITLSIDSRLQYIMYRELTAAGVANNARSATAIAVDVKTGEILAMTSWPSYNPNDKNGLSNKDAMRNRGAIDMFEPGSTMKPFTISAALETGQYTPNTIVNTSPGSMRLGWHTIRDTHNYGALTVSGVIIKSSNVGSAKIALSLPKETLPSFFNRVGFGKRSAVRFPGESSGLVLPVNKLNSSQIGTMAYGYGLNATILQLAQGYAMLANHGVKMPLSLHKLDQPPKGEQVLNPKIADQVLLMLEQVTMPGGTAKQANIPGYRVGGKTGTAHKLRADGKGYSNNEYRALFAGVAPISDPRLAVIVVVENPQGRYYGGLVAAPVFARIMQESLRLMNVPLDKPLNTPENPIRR
Nature of the assay: Bocillin-FL fluorescence polarization competition binding, A. baumannii PBP3. As to conditions: fluorescence polarization competition binding assay using Bocillin-FL; read-out: A. baumannii PBP3 Potency. In short, it runs like this: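 Purified PBP was preincubated with inhibitor (E. coli PBP3 1.5 μM, 30 min; P. aeruginosa PBP3 0.75 μM, A. baumannii PBP3 0.2 μM and PBP1a 1 μM, 15 min), then Bocillin-FL (0.1 μM; 0.05 μM for PBP1a) added and FP read up to 60 min. EC50 = 50% loss of bound probe.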
(In fluorescence polarisation assays a small probe gives low polarisation when free and higher when bound to something large.)

The next assay relates to P. aeruginosa CDC-0110. Nature of the assay: microbe, parasite or virus in culture. In kind it is cell-based. To be noted: Pseudomonas aeruginosa, CDC0110, read-out: Minimum inhibitory concentration, P. aeruginosa CDC-0110.
Assay [2] relates to B. humptydooensis ATCC BAA-2767. Briefly: microbe, parasite or virus in culture. As to conditions: Burkholderia humptydooensis, ATCCBAA2767, read-out: Minimum inhibitory concentration (MIC), B. humptydooensis ATCC BAA-2767. In kind it is cell-based.

Molecules are shown by their SMILES. Converted amounts (≈) assume the structure as drawn. Bounds are passed on as bounds.

As to `O=C(O)c1c(F)ccc2c1OB(O)[C@@H](NC(=O)[C@H](NC(=O)N1CCN(C3CCN(C(=O)c4cc(F)c(F)c(O)c4F)CC3)C1=O)c1cc(F)c(O)c(O)c1Cl)C2` (single isomer, unassigned) [Example 441], the MIC in the assay with P. aeruginosa CDC-0095 is less than 1 µg/mL; with A. baumannii ATCC 19606 it was less than 1 µg/mL; in the assay on P. aeruginosa ATCC 27853, 2 to 4 µg/mL (≈ 2.46 to 4.93 µM); in the assay on A. baumannii CDC-0033 it was less than 1 µg/mL; with A. baumannii ATCC 17978, less than 1 µg/mL; with P. aeruginosa ATCC 35151, less than 1 µg/mL. In addition, the MIC (in the assay on P. aeruginosa CDC-0090; with A. baumannii 1258916; with P. aeruginosa CDC-0110; in assay [2]) was less than 1 µg/mL in each case. For the same molecule, the IC50 in assay [1] is less than 10 µM.

With `O=C(O)c1c(F)ccc2c1OB(O)[C@@H](NC(=O)[C@H](NC(=O)N1CCN(C3CCN(C(=O)c4cc(O)cc(O)c4)CC3)C1=O)c1cc(F)c(O)c(O)c1Cl)C2` (single isomer, unassigned) [Example 442], the MIC in the assay with P. aeruginosa CDC-0095, with A. baumannii ATCC 19606, in the assay with P. aeruginosa ATCC 27853, in the assay with A. baumannii CDC-0033, in the assay on A. baumannii ATCC 17978 and with P. aeruginosa ATCC 35151 was less than 1 µg/mL in each case. Further, the MIC (with P. aeruginosa CDC-0090; with A. baumannii 1258916; in the assay with P. aeruginosa CDC-0110; in assay [2]) was less than 1 µg/mL in each case. Besides, the IC50 in [1] is less than 10 µM.

In the case of `O=C(O)c1c(F)ccc2c1OB(O)[C@@H](NC(=O)[C@H](NC(=O)N1CCN(C3CCN(C(=O)c4cc(O)c(F)c(O)c4)CC3)C1=O)c1cc(F)c(O)c(O)c1Cl)C2` (single isomer, unassigned) [Example 443], the MIC with P. aeruginosa CDC-0095, in the assay with A. baumannii ATCC 19606, in the assay with P. aeruginosa ATCC 27853, in the assay on A. baumannii CDC-0033, in the assay on A. baumannii ATCC 17978 and in the assay on P. aeruginosa ATCC 35151 was less than 1 µg/mL throughout. The MIC (in the assay with P. aeruginosa CDC-0090; in the assay with A. baumannii 1258916; in the assay with P. aeruginosa CDC-0110; in assay [2]) was less than 1 µg/mL in each case. For the same molecule, in assay [1], the IC50 is less than 10 µM.

For `O=C(O)c1c(F)ccc2c1OB(O)[C@@H](NC(=O)[C@H](NC(=O)N1CCN(C3CCN(C(=O)c4cc(O)c(F)c(O)c4F)CC3)C1=O)c1cc(F)c(O)c(O)c1Cl)C2` (single isomer, unassigned) [Example 444], the MIC with P. aeruginosa CDC-0095, in the assay with A. baumannii ATCC 19606, with P. aeruginosa ATCC 27853, in the assay on A. baumannii CDC-0033, with A. baumannii ATCC 17978 and in the assay with P. aeruginosa ATCC 35151 was less than 1 µg/mL each time. For the same molecule, the MIC (in the assay with P. aeruginosa CDC-0090; in the assay on A. baumannii 1258916; in the assay on P. aeruginosa CDC-0110; in [2]) was less than 1 µg/mL in each case. Moreover, the IC50 in [1] is less than 10 µM.

For `O=C(O)c1c(F)ccc2c1OB(O)[C@@H](NC(=O)[C@H](NC(=O)N1CCN(C3CCN(C(=O)Nc4cccc(O)c4F)CC3)C1=O)c1cc(F)c(O)c(O)c1Cl)C2` (single isomer, unassigned) [Example 446], the MIC in the assay with P. aeruginosa CDC-0095, in the assay on A. baumannii ATCC 19606, in the assay with P. aeruginosa ATCC 27853, with A. baumannii CDC-0033, in the assay with A. baumannii ATCC 17978 and in the assay on P. aeruginosa ATCC 35151 was less than 1 µg/mL throughout. For the same molecule, the MIC (with P. aeruginosa CDC-0090; in the assay with A. baumannii 1258916; with P. aeruginosa CDC-0110; in assay [2]) was less than 1 µg/mL throughout. Further, in assay [1], the IC50 is less than 10 µM.

Take `O=C(O)c1c(F)ccc2c1OB(O)[C@@H](NC(=O)[C@H](NC(=O)N1CCN(C3CCN(C(=O)Nc4cc(O)ccc4Cl)CC3)C1=O)c1cc(F)c(O)c(O)c1Cl)C2` (single isomer, unassigned) [Example 448]: the MIC in the assay on P. aeruginosa CDC-0095, in the assay on A. baumannii ATCC 19606, in the assay on P. aeruginosa ATCC 27853, in the assay on A. baumannii CDC-0033, in the assay with A. baumannii ATCC 17978 and in the assay on P. aeruginosa ATCC 35151 was less than 1 µg/mL throughout. Besides, the MIC (with P. aeruginosa CDC-0090; in the assay on A. baumannii 1258916; in the assay on P. aeruginosa CDC-0110; in assay [2]) was less than 1 µg/mL throughout. The IC50 in assay [1] was less than 10 µM.
